# In paper PMC11261611, “Tongue-on-a-Chip: Parallel Recording of Sweet and Bitter Receptor Responses to Sequential Injections of Pure and Mixed Sweeteners” (Journal of Agricultural and Food Chemistry, 2024):
# Where a SMILES comes first, the peptide text is derived from it.
# Legend:
# [1] = molecular target: T1, sweet taste receptor TAS1R2/R3 (TAS1R2) (Homo sapiens, UniProt Q7RTX0+Q8TE23); assay: calcium (Twitch2B FRET) response in reverse-transfected HEK293-Gα[…]GUST44 receptor array, flow cell; type: cell-based
# T1 construct: with TAS1R3
# T1 sequence (Q8TE23 20-839): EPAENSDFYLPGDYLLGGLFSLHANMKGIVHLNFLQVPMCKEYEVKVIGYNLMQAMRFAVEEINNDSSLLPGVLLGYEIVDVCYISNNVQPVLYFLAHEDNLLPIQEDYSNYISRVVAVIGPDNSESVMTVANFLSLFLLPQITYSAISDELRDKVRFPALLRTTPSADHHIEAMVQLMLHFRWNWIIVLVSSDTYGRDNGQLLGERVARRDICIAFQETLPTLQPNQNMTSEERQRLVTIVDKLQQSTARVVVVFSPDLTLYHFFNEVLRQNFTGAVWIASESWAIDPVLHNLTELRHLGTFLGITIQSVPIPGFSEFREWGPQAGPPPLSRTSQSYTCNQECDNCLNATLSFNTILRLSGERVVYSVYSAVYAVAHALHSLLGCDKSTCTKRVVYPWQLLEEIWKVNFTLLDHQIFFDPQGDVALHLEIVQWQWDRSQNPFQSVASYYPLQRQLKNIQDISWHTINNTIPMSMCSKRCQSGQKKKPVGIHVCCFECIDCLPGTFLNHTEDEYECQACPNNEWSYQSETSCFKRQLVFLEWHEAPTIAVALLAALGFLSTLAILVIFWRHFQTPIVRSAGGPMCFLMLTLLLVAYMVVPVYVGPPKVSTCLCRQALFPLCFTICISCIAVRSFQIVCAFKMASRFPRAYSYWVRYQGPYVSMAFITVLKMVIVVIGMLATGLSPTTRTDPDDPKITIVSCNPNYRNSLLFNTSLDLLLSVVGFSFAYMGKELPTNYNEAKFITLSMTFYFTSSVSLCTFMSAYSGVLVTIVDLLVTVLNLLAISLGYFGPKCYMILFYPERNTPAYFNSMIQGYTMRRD
# T1 sequence (Q7RTX0 21-852): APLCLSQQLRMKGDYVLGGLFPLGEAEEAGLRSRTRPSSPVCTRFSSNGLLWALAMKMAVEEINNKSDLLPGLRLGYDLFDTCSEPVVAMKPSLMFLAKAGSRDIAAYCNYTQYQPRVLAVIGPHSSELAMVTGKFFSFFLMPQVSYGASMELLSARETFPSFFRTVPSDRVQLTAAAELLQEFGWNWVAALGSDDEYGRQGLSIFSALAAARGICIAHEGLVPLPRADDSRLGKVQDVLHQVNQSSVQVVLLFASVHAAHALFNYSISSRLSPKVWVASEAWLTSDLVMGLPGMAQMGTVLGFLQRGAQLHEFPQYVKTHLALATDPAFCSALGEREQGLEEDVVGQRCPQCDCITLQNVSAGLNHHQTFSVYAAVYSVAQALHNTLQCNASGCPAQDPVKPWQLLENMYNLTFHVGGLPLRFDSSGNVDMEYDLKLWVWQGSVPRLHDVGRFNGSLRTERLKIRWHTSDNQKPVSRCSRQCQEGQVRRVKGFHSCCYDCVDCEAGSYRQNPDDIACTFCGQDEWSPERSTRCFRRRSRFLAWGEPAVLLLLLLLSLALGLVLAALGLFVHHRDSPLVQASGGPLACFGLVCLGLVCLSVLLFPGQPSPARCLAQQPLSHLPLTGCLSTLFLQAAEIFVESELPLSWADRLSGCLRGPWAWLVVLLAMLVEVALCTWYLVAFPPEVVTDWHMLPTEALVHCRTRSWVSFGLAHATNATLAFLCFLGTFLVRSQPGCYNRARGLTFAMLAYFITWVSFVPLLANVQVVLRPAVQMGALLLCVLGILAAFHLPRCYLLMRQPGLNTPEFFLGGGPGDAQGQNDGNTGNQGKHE
# [2] = molecular target: T1, sweet taste receptor TAS1R2/R3 (TAS1R2); assay: calcium (Twitch2B FRET) response in reverse-transfected HEK293-Gα[…]GUST44 receptor array, normalized against umami receptor signal; type: cell-based
# TAS2R43 = molecular target: T2, TAS2R43 (Homo sapiens, UniProt P59537); conditions: hek293 cells
# T2 sequence (P59537 1-309): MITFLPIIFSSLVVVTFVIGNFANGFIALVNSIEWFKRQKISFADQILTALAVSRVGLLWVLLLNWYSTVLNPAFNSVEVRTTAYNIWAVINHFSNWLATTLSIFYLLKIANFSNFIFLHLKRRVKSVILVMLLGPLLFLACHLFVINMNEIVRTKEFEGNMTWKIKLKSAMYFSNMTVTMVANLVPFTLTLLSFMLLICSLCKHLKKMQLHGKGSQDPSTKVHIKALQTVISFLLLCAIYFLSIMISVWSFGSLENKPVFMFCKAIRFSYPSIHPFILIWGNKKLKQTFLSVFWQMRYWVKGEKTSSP
# TAS2R8 = molecular target: T3, TAS2R8 (Homo sapiens, UniProt Q9NYW2); conditions: hek293 cells
# T3 sequence (Q9NYW2 1-309): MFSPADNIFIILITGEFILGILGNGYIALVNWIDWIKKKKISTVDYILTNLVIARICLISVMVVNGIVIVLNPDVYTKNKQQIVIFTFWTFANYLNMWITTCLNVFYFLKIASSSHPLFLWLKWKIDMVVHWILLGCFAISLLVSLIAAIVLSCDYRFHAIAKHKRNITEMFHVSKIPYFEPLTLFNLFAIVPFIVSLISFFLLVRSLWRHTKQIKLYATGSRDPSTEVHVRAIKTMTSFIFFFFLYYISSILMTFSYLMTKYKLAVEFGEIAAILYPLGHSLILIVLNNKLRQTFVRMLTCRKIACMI
# TAS2R31 = TAS2R31 (Homo sapiens, UniProt P59538); conditions: hek293 cells
# TAS2R31, sequence (P59538 whole entry): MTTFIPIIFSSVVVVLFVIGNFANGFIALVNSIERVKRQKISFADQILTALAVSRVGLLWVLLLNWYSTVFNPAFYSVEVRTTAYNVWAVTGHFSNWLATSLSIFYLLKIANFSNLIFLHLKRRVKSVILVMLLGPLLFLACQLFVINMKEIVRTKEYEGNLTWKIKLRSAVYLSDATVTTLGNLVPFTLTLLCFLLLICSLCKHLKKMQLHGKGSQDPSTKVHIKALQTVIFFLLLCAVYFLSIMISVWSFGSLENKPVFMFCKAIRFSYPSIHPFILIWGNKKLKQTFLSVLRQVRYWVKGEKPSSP
structure (smiles),measurement,setting,value
COC(=O)[C@H](Cc1ccccc1)NC(=O)[C@@H](N)CC(=O)O [aspartame] (H-Asp-Phe-OMe),EC50,[1],625 µM
OC[C@H]1O[C@@](CO)(O[C@H]2O[C@H](CO)[C@@H](O)[C@H](O)[C@H]2O)[C@@H](O)[C@@H]1O [sucrose],EC50,[2],35000 µM
COC(=O)[C@H](Cc1ccccc1)NC(=O)[C@H](CC(=O)O)NCCCc1ccc(OC)c(O)c1 [advantame],EC50,[1],~1.5 µM
O=S(=O)(O)NC1CCCCC1 [cyclamate],% signal reduction,TAS2R43,92 % signal reduction
same,% signal reduction,TAS2R8,33 % signal reduction
same,% signal reduction,TAS2R31,48 % signal reduction
